Results as given in patent US10385108B2, “Peptide analogs of alpha-melanocyte stimulating hormone” (Genzyme Corporation, priority 2008, dated 2019).
“And” between values parts separate entries of the source, which are not always exact repeats. Equal values may be shown once. Where a SMILES comes first, the peptide text is derived from it. [ ]: non-standard residue; d: D form.

Assays:
[1] = tested on: B16-F1 murine melanoma cells; test: Intracellular cAMP in B16-F1 melanoma cells; format: cell-based; settings: for cAMP levels (in words): peptide at 1 μg/ml; for EC50: B16-F1 cells, 10^-4-10^-11 M, 30 min, IBMX
Protocol: B16-F1 (melanoma cell line) cells from American Type Culture Collection (Manassas, Va.) were seeded into flat bottom 96 well plates at 5×10^4/well and cultured overnight in DMEM (Cambrex, Walkersville, Md.) supplemented with 2 mM glutamine, antibiotics (100 U/ml penicillin and 100 […]) and 10% heat-inactivated fetal bovine serum (Invitrogen, Grand Island, N.Y.). […] Cells were lysed and intracellular cAMP levels were measured by an enzyme immunoassay kit (Amersham Biosciences, Piscataway, N.J.). Forskolin (Sigma, St. Louis, Mo.) at 100 μM served as positive controls.
cAMP levels in B16-F1 melanoma cells after treatment with native α-MSH, RI α-MSH, or a scrambled control peptide were examined. The […] melanoma cell line expresses a high number of MCR1 receptors (3000-4000 receptors/cell) compared with macrophages cell lines which express only 100-200 receptors/cell. Therefore we selected to examine the effect of the RI α-MSH treatment on the melanoma cell line. Murine melanoma B16-F1 cells were treated with native α-MSH, RI α-MSH, or control scrambled peptide at concentrations 1 pg/ml-1 μg/ml. After 30 min, cells were lysed and intracellular cAMP was measured by an enzyme immunoassay. […] However, a higher concentration of RI α-MSH (100 ng/ml) was necessary to increase cAMP compared with native α-MSH which increased cAMP at a 10 pg/ml concentration. This difference in concentration of peptide necessary to increase cAMP levels may be the result of the binding affinity to the MCR1 receptor.
Murine melanoma B16-F1 cells were treated with native α-MSH, RI α-MSH, scrambled peptide control, KPV, or alanine substituted peptides of RI α-MSH at 1 μg/ml (FIG. 7B). […] Peptides designated 810, 811, and 812 have alanine substitutions in the central core tetrapeptide sequence (D-Trp D-Arg D-Phe D-His region; AA 5-8) (variant disclosed in SEQ ID NO:2) proposed to be involved in native α-MSH binding to the melanocortin receptor and its biological activity. […] The residues in the core tetrapeptide (wrfh) (variant disclosed in SEQ ID NO:2) and to a lesser extent, the methionine 4 of RI-MSH are critical for binding to MC1R.
B16-F1 murine melanoma cells were cultured into 96 well plates 5×10^4 cells/well overnight in media with L-glutamine and pen/strep and FBS. Media was removed and new media with IBMX was added to the cells for 1 hr. Cells were then treated with RI α-MSH, or RI α-MSH peptide analogs (890, 891, 892, 893, 894 or 895). Cells were lysed after 30 min using a cAMP assay kit and supernatant were used in the assay. Forskolin at 10 μM served as positive controls.
Intracellular cAMP was measured using a cAMP competition Assay Kit (Amersham Biosciences). All cell lysate samples were diluted 1:100 for analysis.
Murine melanoma B16-F1 cells were treated with RI α-MSH, or RI α-MSH analogs (869, 872, 880, 878, 886 and 890-895) at a concentration range of 10^−4-10^−11 M. cAMP levels from cells treated with RI α-MSH, or RI α-MSH analogs. […] See FIG. 22 for graphical data and Table 2 for EC50 data.

MC1R = MC1R (Homo sapiens, UniProt Q01726); test: Competitive binding with 125I-NDP-MSH, HEK293 membrane preparations, MC1R; settings: for Ki: Ki MC1R, competition with 125I-NDP-MSH;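 on all read-outs here: Read-out: receptor-bound radioligand retained by filtration and counted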
Protocol: (§1) Binding analysis was done by Cerep laboratories (Paris, France) with coded samples.
(§2) The mixtures were filtered through 96-well GFC filters (Millipore, Billerica, Mass.), washed 3 times with binding buffer without BSA, dried and counted.
(§3) A competitive binding assay using a MCR panel including MCR 1, 3, 4, and 5 was performed.

MC5R = MC5R (Homo sapiens, UniProt P33032); test: Competitive binding with 125I-NDP-MSH, HEK293 membrane preparations, MC5R; settings: Ki MC5R, competition with 125I-NDP-MSH; cells noted in μM
Protocol: as §1, §2, §3

MC4R = MC4R (Homo sapiens, UniProt P32245); test: Competitive binding with 125I-NDP-MSH, HEK293 membrane preparations, MC4R
Protocol: as §1, §2, §3

MC3R = MC3R (Homo sapiens, UniProt P41968); test: Competitive binding with 125I-NDP-MSH, HEK293 membrane preparations, MC3R
Protocol: as §1, §2, §3

C57BL/6 mice = test: MOG35-55 induced EAE model; format: in vivo; settings: 2 mg/kg

MC3R, sequence (P41968 whole entry): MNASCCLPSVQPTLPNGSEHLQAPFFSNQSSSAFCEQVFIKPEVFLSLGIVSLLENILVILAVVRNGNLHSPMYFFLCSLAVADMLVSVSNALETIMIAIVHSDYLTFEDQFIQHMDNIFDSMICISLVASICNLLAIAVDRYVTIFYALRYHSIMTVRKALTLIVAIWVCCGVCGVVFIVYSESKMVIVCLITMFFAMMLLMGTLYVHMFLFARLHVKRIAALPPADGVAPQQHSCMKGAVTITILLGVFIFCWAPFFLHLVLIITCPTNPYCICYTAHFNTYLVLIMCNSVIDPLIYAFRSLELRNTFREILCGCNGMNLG
MC5R, sequence (P33032 whole entry): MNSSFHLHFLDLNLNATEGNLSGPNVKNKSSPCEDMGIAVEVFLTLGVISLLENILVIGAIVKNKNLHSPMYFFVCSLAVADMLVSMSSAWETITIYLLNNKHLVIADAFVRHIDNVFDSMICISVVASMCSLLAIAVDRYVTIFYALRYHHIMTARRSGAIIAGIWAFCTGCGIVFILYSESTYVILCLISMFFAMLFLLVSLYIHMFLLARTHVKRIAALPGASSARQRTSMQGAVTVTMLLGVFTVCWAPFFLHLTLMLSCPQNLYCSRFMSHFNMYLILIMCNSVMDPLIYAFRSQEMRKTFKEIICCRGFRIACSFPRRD
MC1R, sequence (Q01726 whole entry): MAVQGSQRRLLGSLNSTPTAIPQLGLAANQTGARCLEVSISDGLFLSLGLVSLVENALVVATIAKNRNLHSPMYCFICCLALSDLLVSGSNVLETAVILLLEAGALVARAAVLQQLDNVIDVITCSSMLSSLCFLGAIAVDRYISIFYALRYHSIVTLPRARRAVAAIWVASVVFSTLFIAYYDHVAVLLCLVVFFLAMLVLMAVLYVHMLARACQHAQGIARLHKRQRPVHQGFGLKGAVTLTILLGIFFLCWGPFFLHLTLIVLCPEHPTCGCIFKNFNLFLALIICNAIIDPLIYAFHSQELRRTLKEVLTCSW
MC4R, sequence (P32245 whole entry): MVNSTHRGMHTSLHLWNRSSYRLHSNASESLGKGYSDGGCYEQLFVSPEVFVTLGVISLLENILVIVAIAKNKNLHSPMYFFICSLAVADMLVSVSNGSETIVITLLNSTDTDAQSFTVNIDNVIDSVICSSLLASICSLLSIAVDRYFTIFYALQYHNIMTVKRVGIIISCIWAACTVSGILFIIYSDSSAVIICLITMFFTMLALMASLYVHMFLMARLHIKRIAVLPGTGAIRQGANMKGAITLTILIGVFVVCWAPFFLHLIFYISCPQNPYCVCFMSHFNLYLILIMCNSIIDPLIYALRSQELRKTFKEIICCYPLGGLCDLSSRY

SMILES	cAMP levels (in words) [1]	Ki (MC1R)	Ki (MC5R)	Ki (MC3R)	EC50 [1]	other results
CSCC[C@@H](NC(=O)[C@@H](CCC(=O)O)NC(=O)[C@@H](Cc1c[nH]cn1)NC(=O)[C@@H](Cc1ccccc1)NC(=O)[C@@H](CCCNC(=N)N)NC(=O)[C@@H](C)NC(=O)CNC(=O)[C@@H](CCCCN)NC(=O)[C@H]1CCCN1C(=O)[C@H](NC(C)=O)C(C)C)C(=O)N[C@H](CO)C(=O)N[C@H](Cc1ccc(O)cc1)C(=O)N[C@H](CO)C(N)=O [compound 812, vpkGarfhemsys] (Ac-[dV][dP][dK]G[dA][dR][dF][dH][dE][dM][dS][dY][dS]-NH2)	no increase in cAMP activity	–	–	–	–	–
C=C[C@@]1(C)CC(=O)[C@]2(O)[C@@]3(C)[C@@H](O)CCC(C)(C)[C@@H]3[C@H](O)[C@H](OC(C)=O)[C@@]2(C)O1 [Forskolin, reference compound]	–	–	–	–	–	cAMP ([1]; 100 μM, positive control): 3455.39±406.6 and 3294.82±54.53
CSCC[C@@H](NC(=O)[C@@H](CCC(=O)O)NC(=O)[C@@H](Cc1c[nH]cn1)NC(=O)[C@@H](C)NC(=O)[C@@H](CCCNC(=N)N)NC(=O)[C@@H](Cc1c[nH]c2ccccc12)NC(=O)CNC(=O)[C@@H](CCCCN)NC(=O)[C@H]1CCCN1C(=O)[C@H](NC(C)=O)C(C)C)C(=O)N[C@H](CO)C(=O)N[C@H](Cc1ccc(O)cc1)C(=O)N[C@H](CO)C(N)=O [compound 810, vpkGwrahemsys]	no increase in cAMP activity	–	–	–	–	–
CCCCSCC[C@@H](NC(=O)[C@@H](CCC(=O)O)NC(=O)[C@@H](Cc1c[nH]cn1)NC(=O)[C@@H](CC1CCCCC1)NC(=O)[C@@H](CCCNC(=N)N)NC(=O)[C@@H](Cc1c[nH]c2ccccc12)NC(=O)CNC(=O)[C@@H](CCCCN)NC(=O)[C@H]1CCCN1C(=O)[C@H](NC(C)=O)C(C)C)C(=O)N[C@H](CO)C(=O)N[C@H](Cc1ccc(O)cc1)C(=O)N[C@H](CO)C(N)=O [compound 890, vpkGwr(D-Cha)he(d-Buthionine)sys]	–	0.0019 µM	~4.5 µM	~15 µM	–	Ki (MC4R): ~14 µM
CSCC[C@@H](NC(=O)[C@@H](CCC(=O)O)NC(=O)[C@@H](CCCNC(=N)N)NC(=O)[C@@H](Cc1ccccc1)NC(=O)[C@@H](CCCNC(=N)N)NC(=O)[C@@H](Cc1c[nH]c2ccccc12)NC(=O)CNC(=O)[C@@H](CCCCN)NC(=O)[C@H]1CCCN1C(=O)[C@H](NC(C)=O)C(C)C)C(=O)N[C@H](CO)C(=O)N[C@H](Cc1ccc(O)cc1)C(=O)N[C@H](CO)C(N)=O [compound 872, vpkGwrfremsys]	–	0.0135 µM	–	–	2 µM	–
CSCC[C@H](NC(=O)[C@H](CO)NC(=O)[C@H](Cc1ccc(O)cc1)NC(=O)[C@H](CO)NC(C)=O)C(=O)N[C@@H](CCC(=O)O)C(=O)N[C@@H](Cc1c[nH]cn1)C(=O)N[C@@H](CC1CCCCC1)C(=O)N[C@@H](CCCNC(=N)N)C(=O)N[C@@H](Cc1c[nH]c2ccccc12)C(=O)NCC(=O)N[C@@H](CCCCN)C(=O)N1CCC[C@H]1C(=O)N[C@H](C(N)=O)C(C)C [compound 892, SYSMEH(L-Cha)RWGKPV]	–	0.00051 µM	–	–	0.021 µM	–
CSCC[C@@H](NC(=O)[C@@H](CCC(=O)O)NC(=O)[C@@H](Cc1c[nH]cn1)NC(=O)[C@@H](Cc1ccccc1)NC(=O)[C@@H](CCCNC(=N)N)NC(=O)[C@H](Cc1c[nH]c2ccccc12)NC(=O)CNC(=O)[C@@H](CCCCN)NC(=O)[C@H]1CCCN1C(=O)[C@H](NC(C)=O)C(C)C)C(=O)N[C@H](CO)C(=O)N[C@H](Cc1ccc(O)cc1)C(=O)N[C@H](CO)C(N)=O [compound 893, vpkGWrfhemsys]	–	0.0065 µM	~27 µM	~28 µM	0.27 µM	–
CSCC[C@@H](NC(=O)[C@@H](CCC(=O)O)NC(=O)[C@@H](Cc1c[nH]cn1)NC(=O)[C@@H](Cc1ccccc1)NC(=O)[C@@H](C)NC(=O)[C@@H](Cc1c[nH]c2ccccc12)NC(=O)CNC(=O)[C@@H](CCCCN)NC(=O)[C@H]1CCCN1C(=O)[C@H](NC(C)=O)C(C)C)C(=O)N[C@H](CO)C(=O)N[C@H](Cc1ccc(O)cc1)C(=O)N[C@H](CO)C(N)=O [compound 811, vpkGwafhemsys] (Ac-[dV][dP][dK]G[dW][dA][dF][dH][dE][dM][dS][dY][dS]-NH2)	no increase in cAMP activity	–	–	–	–	–
CSCC[C@@H](NC(=O)[C@@H](CCC(=O)O)NC(=O)[C@@H](C)NC(=O)[C@@H](Cc1ccccc1)NC(=O)[C@@H](CCCNC(=N)N)NC(=O)[C@@H](Cc1c[nH]c2ccccc12)NC(=O)CNC(=O)[C@@H](CCCCN)NC(=O)[C@H]1CCCN1C(=O)[C@H](NC(C)=O)C(C)C)C(=O)N[C@H](CO)C(=O)N[C@H](Cc1ccc(O)cc1)C(=O)N[C@H](CO)C(N)=O [compound 809, vpkGwrfaemsys] (Ac-[dV][dP][dK]G[dW][dR][dF][dA][dE][dM][dS][dY][dS]-NH2)	reduction in cAMP accumulation	1.2 ± 0.27 µM	–	–	–	–
CSCC[C@@H](NC(=O)[C@@H](CCC(=O)O)NC(=O)[C@H](Cc1c[nH]cn1)NC(=O)[C@@H](Cc1ccccc1)NC(=O)[C@@H](CCCNC(=N)N)NC(=O)[C@@H](Cc1c[nH]c2ccccc12)NC(=O)CNC(=O)[C@@H](CCCCN)NC(=O)[C@H]1CCCN1C(=O)[C@H](NC(C)=O)C(C)C)C(=O)N[C@H](CO)C(=O)N[C@H](Cc1ccc(O)cc1)C(=O)N[C@H](CO)C(N)=O [compound 895, vpkGwrfHemsys]	–	0.019 µM	~37 µM	~37 µM	0.3 µM	–
CSCC[C@@H](NC(=O)[C@@H](CCC(=O)O)NC(=O)[C@@H](Cc1c[nH]cn1)NC(=O)[C@@H](Cc1ccccc1)NC(=O)[C@H](CCCNC(=N)N)NC(=O)[C@@H](Cc1c[nH]c2ccccc12)NC(=O)CNC(=O)[C@@H](CCCCN)NC(=O)[C@H]1CCCN1C(=O)[C@H](NC(C)=O)C(C)C)C(=O)N[C@H](CO)C(=O)N[C@H](Cc1ccc(O)cc1)C(=O)N[C@H](CO)C(N)=O [compound 894, vpkGwRfhemsys]	–	0.38 µM	> 30 µM	> 30 µM	212 µM	–
C[C@@H]1C[C@H]2[C@@H]3CCC4=CC(=O)C=C[C@]4(C)[C@@]3(F)[C@@H](O)C[C@]2(C)[C@@]1(O)C(=O)CO [Dexamethasone, dexamethasone, reference compound]	–	–	–	–	–	maximum percent incidence of disease (C57BL/6 mice): 40%
CSCC[C@@H](NC(=O)[C@@H](CCC(=O)O)NC(=O)[C@@H](Cc1c[nH]cn1)NC(=O)[C@H](Cc1ccccc1)NC(=O)[C@@H](CCCNC(=N)N)NC(=O)[C@@H](Cc1c[nH]c2ccccc12)NC(=O)CNC(=O)[C@@H](CCCCN)NC(=O)[C@H]1CCCN1C(=O)[C@H](NC(C)=O)C(C)C)C(=O)N[C@H](CO)C(=O)N[C@H](Cc1ccc(O)cc1)C(=O)N[C@H](CO)C(N)=O [compound 884, vpkGwrFhemsys]	–	0.072 µM	> 30 µM	> 30 µM	–	reduction in binding to MC1R, inversion of D-Phe to L-Phe in the RI sequence (MC1R; relative to RI-MSH): 20 fold
CC(=O)N[C@@H](C(=O)N1CCC[C@@H]1C(=O)N[C@H](CCCCN)C(=O)NCC(=O)N[C@H](Cc1c[nH]c2ccccc12)C(=O)N[C@H](CCCNC(=N)N)C(=O)N[C@H](Cc1ccccc1)C(=O)N[C@H](Cc1c[nH]cn1)C(=O)N[C@H](CCC(=O)O)C(=O)N[C@H](C)C(=O)N[C@H](CO)C(=O)N[C@H](Cc1ccc(O)cc1)C(=O)N[C@H](CO)C(N)=O)C(C)C [compound 807, vpkGwrfheasys] (Ac-[dV][dP][dK]G[dW][dR][dF][dH][dE][dA][dS][dY][dS]-NH2)	reduction in cAMP accumulation	1.4 ± 0.19 µM	–	–	–	–
